From patent publication US20230248835A1, “COMPOUNDS, COMPOSITIONS, AND METHODS FOR THE TREATMENT OF FIBROTIC DISEASES AND CANCER” (Purdue Research Foundation, priority 2020, published 2023)

Legend:
[1] = test system: human peripheral blood mononuclear cells (PBMCs); assay: IL-6 production in human PBMCs treated with TLR7 agonists (ELISA); assay type: cell-based; details: 24 hours, compared to control Compound A (TLR7-1), FIG. 2
Description: To evaluate the efficacy of TLR-7 agonists, Compounds 1 (TLR7-1A), 2 (TLR7-1B) and 3 (TLR7-1C) were treated with human peripheral blood mononuclear cells (PBMCs) for 24 hours and cytokine production was thereafter assessed. Human PBMCs were isolated from healthy donors by density gradient centrifugation following standard procedure. 18 mL of blood were diluted with 2% fetal bovine serum (FBS) in phosphate-buffered saline (PBS) (1:1 dilution) and transferred slowly into a 50 mL SepMate™ PBMC isolation tube containing 12 mL of Ficoll-Paque®. The tube was centrifuged at 1200 g for 10 minutes and PBMCs were transferred into a fresh 50 mL tube.
PBMCs were washed with 2×50 mL of 2% FBS in PBS and plated in 96 well plate at a density of 2×10^5 cells/200 μL RPMI medium. This was treated with different concentrations of TLR7 agonist for 24 hours.
Compound A (TLR7-1) was used as control. Cell culture supernatants were isolated and cytokine levels were calculated using an enzyme-linked immunosorbent assay (ELISA) kit (FIG. 2).

[2] = test system: human primary monocyte derived M2-macrophages; assay: Cytokine induction in human primary monocyte derived M2-macrophages; assay type: cell-based; details: 48 hours; for induction of interleukin-6 (IL-6): compared to parent compound TLR7-1, FIG. 3A; for induction of C-X-C motif chemokine ligand 10 (CXCL-10): compared to parent compound TLR7-1, FIG. 3B; for polarization of M2 macrophages to M1 macrophages: shown by increased M1 markers IL-6 and CXCL10
[3] = test system: mouse bone marrow-derived M2-macrophages; assay: Macrophage polarization in mouse bone marrow-derived M2 macrophages (ELISA); assay type: cell-based; details: 48 hours
Description: Bone marrow cells were isolated from tibias and femurs of male C57BL/6 mice and were differentiated to macrophages with mouse M-CSF (20 ng/mL). The macrophages were then polarized to M2 phenotype with 20 ng/mL of […] for 48 hours. Interferon-γ (IFN-γ), interleukin-4 (IL-4), and interleukin-13 (IL-13) were obtained from Biolgend (San Diego, Calif.). Lipopolysaccharide (LPS) was purchased from Sigma-Aldrich (St. Louis, Mo.).
The resulting M2 macrophages were then incubated with varying concentrations of Resiquimod, GSK2245035, Compound 1, Compound 2, and Compound 3 for 48 hours. Supernatant was harvested and cytokines were analyzed using ELISA. (Resiquimod and GSK2245035 are known TLR7 agonists.)

[4] = Systemic cytokine release in healthy mice after tail vein injection; assay type: in vivo; details: healthy Balb/c mice, 10 nmol tail vein, 1 hour or 1.5 hours after treatment
Source text: Female Balb/c mice were purchased from Charles Rivers, housed in a sterile environment on a standard 12-hour light-dark cycle, and maintained on a folate-deficient diet. All animal procedures were approved by the Purdue Animal Care and Use Committee in accordance with National Institutes of Health guidelines.
Healthy mice were tail vein injected with 10 nmol Compound A (TLR7-1) or Compound 1 (TLR7-1A), and peripheral blood was collected at indicated time points after drug injection. (FIGS. 3C and 3D). The effect of drug on plasma levels of IL-6 (FIG. 3C), and tumor necrosis factor alpha (TNF-α) (FIG. 3D) was determined at 1 hour or 1.5 hours after treatment. Both Compounds A and 1 stimulated systemic cytokine release in healthy mice.

[5] = test system: human PBMC-derived M2 macrophages; assay: Surface markers during macrophage polarization (flow cytometry); assay type: cell-based; details: 48 hours
Description: Human PMBC-derived M2 macrophages were treated with different concentrations of folate-TLR7 agonists (e.g., Compound 4) for 48 hours, and macrophage cells were detached using Accutase cell detachment Solution (Biolegend, San Diego, Calif.; #423201) and gently lifted with a cell scraper. Cells were washed with PBS and nonspecific binding was blocked by incubation with Fc receptor blocking solution (Biolegend, San Diego, Calif.) at room temperature for 10 minutes. The resulting single cell suspensions were stained for M2 macrophage marker CD206, and M1 macrophage markers CD80 and CD40. All the samples were then analyzed by flow cytometry.

[6] = test system: human PBMC-derived M2 macrophages; assay: Reprogramming of human PBMC-derived M2 macrophages by folate-TLR7 conjugates (qPCR, ELISA); assay type: cell-based; details: increased M1 markers
Description: To evaluate the efficacy of the releasable and non-releasable conjugates, freshly isolated PBMCs were plated with monocyte attachment medium at a seeding density of 1 million cells/cm^2. This was incubated for about 2 hours at 5% CO2 and 37° C. in the incubator. Non-adherent cells were removed, and the monocytes were washed three times with warm monocyte attachment medium. The monocytes were cultured in folate deficient RPMI 1640 medium. This was differentiated into unpolarized macrophages by incubating with fresh RPMI medium containing 20 ng/mL of M-CSF supplemented with 1% penicillin streptomycin (Invitrogen, Carlsbad, Calif.) and 10% FBS.
After 3 days, the medium was replaced with fresh RPMI medium containing 20 ng/mL of M-CSF. […]
qPCR analyses were performed using the iTaq™ Universal SYBR Green SuperMix (Bio-Rad Laboratories, Inc., Hercules, Calif.; #1725121), iCycler thermocycler, and iCycler iQ 3.0 software (Bio-Rad Laboratories Inc., Hercules, Calif.) to track the expression of markers characteristic of macrophage polarization states. […] Each sample was analyzed independently in triplicate for each marker. IL-6, CXCL-10 and TNF-α protein expression in the cell culture supernatants were calculated using the commercially available ELISA kits (Biolegend, San Diego, Calif.).

4T1 metastatic tumor = 4T1 metastatic tumor model, lung metastatic colony formation (6-thioguanine assay); assay type: in vivo; details: Balb/c mice, 50 nmole/kg intravenously once/week
Description: Additional 4T1 solid tumor metastatic studies were also performed. There, lung metastatic colony formation assay was carried out following the reported procedure (Cresswell et al., Folate receptor beta designates immunosuppressive tumor-associated myeloid cells that can be reprogrammed with folate-targeted drugs, Cancer Research 2021, 81(3), 671-684). 6-8 weeks old Balb/c mice were implanted with 50,000 4T1 cells in the mammary fat pad and tumors were allowed to grow until they reached ˜50 mm^3. Mice were then injected intravenously with 100 μl of Folate-TLR7 conjugate (Compound 4) (50 nmole/kg) once/week. The control group received an equal volume of PBS on the same schedule. At the end of the treatment, metastasis in lung was evaluated in disease control and treatment group by co-culturing lung-digested cells with 6-thioguanine ([…]) in complete RPMI-1640 media for 10 days in petri plates. Metastatic colonies were visualized by fixing the plates with 5 mL of methanol followed by 5 mL deionized water wash and then stained with 0.03% methylene blue (see FIG. 15C). Total blue colonies from each plate were then counted.

4T1 solid tumor = 4T1 solid tumor model in mice; assay type: in vivo; details: BalB/c mice; for polarization of the macrophages from M2 to M1 phenotype in tumor: 4T1 solid tumors, flow cytometry; for tumor size: subcutaneous 4T1, intravenous, Compound 5 10 nmol/mouse, Compound 4 different concentrations
Description: In additional in vivo studies, 6-8 week old female BalB/c mice (Charles River Laboratories International, Inc., Wilmington, Mass.) were transferred upon arrival to a folic acid-deficient diet (TD.95247, Envigo Corporation, Indianapolis, Ind.). On day 14, mice were implanted subcutaneously with 5.0×10^4 of 4T1 cells and tumors were allowed to grow until they reach ˜50 mm^3. Mice were then injected intravenously with different concentrations of 100 μl of Folate-TLR7 conjugate Compounds 4 or 10 nmol/mouse of Compound 5). Control groups received 100 μl of 3% DMSO in PBS on the same schedule.
Tumor volume was concurrently measured with calipers using the formula (a×b^2)/2 (a being the largest and b being the smallest diameter of the tumor) (see FIGS. 10A, 10B, and 14). When desired, mice were sacrificed, and derived tumor fragments were dissociated using a human tumor dissociation kit. The resulting single cell suspensions were stained for antibodies and the samples were then analyzed by flow cytometry. Percentage of CD4 and CD8 T cell populations were tested in live cells isolated from 4T1 solid tumors in groups of untreated control and Folate-TLR7 conjugate treatment groups.

SMILES | expression of IL-6 in PBMCs [1] | induction of interleukin-6 (IL-6) [2] | induction of C-X-C motif chemokine ligand 10 (CXCL-10) [2] | polarization of M2 macrophages to M1 macrophages [2] | polarization of the macrophages from M2 to M1 phenotype in tumor (4T1 solid tumor) | tumor size (4T1 solid tumor) | also measured
CCCCc1nc2c(N)nc3ccccc3c2n1CC(C)(C)CO [Compound 1, 3-(4-amino-2-butyl-1H-imidazo[4,5-c]quinolin-1-yl)-2,2-dimethylpropan-1-ol] | increased | more efficiently | more efficiently | polarize the M2 macrophages to M1 macrophages | – | – | M1 marker IL-6 ([3]; supernatant ELISA, FIG. 4A): increase; M1 marker TNF-α ([3]; supernatant ELISA, FIG. 4B): increase; polarization of macrophages from M2 to M1 phenotype ([3]; varying concentrations, FIGS. 4A and 4B): efficiently polarized; systemic cytokine release (plasma IL-6, TNF-α) [4]: stimulated
CCCCc1nc2c(N)nc3ccccc3c2n1CC(C)(C)CN [Compound 2, 1-(3-amino-2,2-dimethylpropyl)-2-butyl-1H-imidazo[4,5-c]quinolin-4-amine] | increased | more efficiently | more efficiently | polarize the M2 macrophages to M1 macrophages | – | – | –
CCCCc1nc2c(N)nc3ccccc3c2n1CC(C)(C)N [Compound 3, 1-(2-amino-2-methylpropyl)-2-butyl-1H-imidazo[4,5-c]quinolin-4-amine] | increased | more efficiently | more efficiently | polarize the M2 macrophages to M1 macrophages | – | – | –
CCCCc1nc2c(N)nc3ccccc3c2n1CC(C)(C)COCCOCCOCCOCCNC(=O)CC[C@H](NC(=O)c1ccc(NCc2cnc3nc(N)[nH]c(=O)c3n2)cc1)C(=O)O [Compound 4, (S)-1-(4-amino-2-butyl-1H-imidazo[4,5-c]quinolin-1-yl)-20-(4-(((2-amino-4-oxo-3,4-dihydropteridin-6-yl)methyl)amino)benzamido)-2,2-dimethyl-17-oxo-4,7,10,13-tetraoxa-16-azahenicosan-21-oic acid] | – | – | – | – | shifted polarization of the macrophages from M2 to M1 phenotype | reduction | M1 surface marker CD40 ([5]; FIG. 12A): increased; M1 surface marker CD80 ([5]; FIG. 12B): increased; polarization of M2 macrophages to M1 macrophages ([5]; FIGS. 12A and 12B): polarized the M2 macrophages to M1 macrophages; polarization of M2 macrophages to M1 macrophages ([6]; 3 hours or 3+45 hours, FIGS. 11A-11D): polarized the M2 macrophages to M1 macrophages; number of metastatic colonies (lung) (4T1 metastatic tumor; 6-thioguanine assay, FIG. 15B-C): significantly decreased; volume of the tumor (4T1 metastatic tumor; 4T1 in mammary fat pad, FIG. 15A): significantly decreased
CCCCc1nc2c(N)nc3ccccc3c2n1CC(C)(C)COC(=O)OCCSSC[C@H](NC(=O)CCOCCOCCOCCNC(=O)CC[C@H](NC(=O)c1ccc(NCc2cnc3nc(N)[nH]c(=O)c3n2)cc1)C(=O)O)C(=O)O [Compound 5] | – | – | – | – | shifted polarization of the macrophages from M2 to M1 phenotype | reduction | polarization of M2 macrophages to M1 macrophages ([6]; 3+45 hours, FIG. 9): polarized the M2 macrophages to M1 macrophages
